Values quoted from earlier work, collected in patent US7148007B2, “Method for evaluating immunotoxicity of test substance” (priority 2001, dated 2006).

Conditions: toxicity level based on that of 2,3,7,8-TCDD being 1; WHO 1998 TEF scheme

SMILES	WHO-TEF
Clc1cc2c(cc1Cl)Oc1c(Cl)c(Cl)c(Cl)c(Cl)c1O2 [1,2,3,4,7,8-HxCDD, 1,2,3,4,7,8-Hexachlorodibenzo-p-dioxin]	0.1
Clc1cc2c(c(Cl)c1Cl)Oc1cc(Cl)c(Cl)c(Cl)c1O2 [1,2,3,6,7,8-HxCDD]	0.1
Clc1cc2c(c(Cl)c1Cl)Oc1c(cc(Cl)c(Cl)c1Cl)O2 [1,2,3,7,8,9-HxCDD, 1,2,3,7,8,9-Hexachlorodibenzo-p-dioxin]	0.1
Clc1cc2c(cc1Cl)Oc1c(cc(Cl)c(Cl)c1Cl)O2 [1,2,3,7,8-PeCDD, 1,2,3,7,8-Pentachlorodibnzo-p-dioxin]	1
Clc1cc2c(cc1Cl)Oc1cc(Cl)c(Cl)cc1O2 [2,3,7,8-TCDD, 2,3,7,8-Tetraorodibenzo-p-dioxin]	1
Clc1c(Cl)c(Cl)c2c(c1Cl)Oc1c(Cl)c(Cl)c(Cl)c(Cl)c1O2 [OCDD, 1,2,3,4,5,6,7,8,9-Octachlorodibenzo-p-dioxin]	0.0001
